Measurements: patent publication US8569342B2, “Diastereomers of 4-aryloxy-3-hydroxypiperidines” (Brentwood Equities, Ltd., priority 2003, dated 2013)
Read-outs that look alike come from different tables or passages of the source.

Tests used:
human 5-HT1A receptor = biological target: T1, human 5-HT1A receptor (Homo sapiens, UniProt P08908); assay: 5-HT1A receptor binding assay; details: for inhibition at 0.1 µM: 100 nM compound, 0.5 nM [3H]-8-OH-DPAT, 60 minutes at 22° C., CHO cells, read-out: % inhibition of control specific at 100 nM conc.
T1 construct: expressed in transfected cells; host or cells: CHO cells
T1 sequence (P08908 1-422): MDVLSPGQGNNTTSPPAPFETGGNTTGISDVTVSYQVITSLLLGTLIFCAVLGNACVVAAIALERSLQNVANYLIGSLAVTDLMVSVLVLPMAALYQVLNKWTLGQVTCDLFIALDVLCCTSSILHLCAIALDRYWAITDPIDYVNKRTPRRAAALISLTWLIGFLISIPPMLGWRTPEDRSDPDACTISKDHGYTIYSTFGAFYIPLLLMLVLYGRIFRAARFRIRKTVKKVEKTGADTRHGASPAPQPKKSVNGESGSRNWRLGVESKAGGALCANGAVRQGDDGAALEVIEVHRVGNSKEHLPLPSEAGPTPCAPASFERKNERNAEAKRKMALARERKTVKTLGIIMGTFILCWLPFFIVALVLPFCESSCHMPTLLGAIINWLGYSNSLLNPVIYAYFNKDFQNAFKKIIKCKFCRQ
Description: (§1) 5-HT receptor binding assays were performed according to the method well known in the art. See for example Mulerhorn et al. J. Biol. Chem. 269 (1994) 12954-12962, Bonhaus et al. (1995) et al. J. Biol. Chem. 269 (1994) 12954-12962 herein incorporated by reference in its entirety. See also U.S. Pat. Nos. 5,126,363; 5,688,807; 5,786,157; and 5,869,691 herein incorporated by reference in their entirety.
(§2) Briefly, CHO cells expressing human 5-HT receptor subtypes, or membranes prepared therefrom, were incubated with a specific radioactive ligand for 60 minutes at 22° C. (0.5 nM of [^3H]-8-OH-DPAT for 5-HT1A receptors, 1.2 nM of [^3H]-LSD for 5-HT2B receptors). Incubations were performed in the presence or absence of one of the following diastereomers: 10 μM 8-OH-DPAT; 100 nM (3S,4R)-4-(2,3-dimethylphenyl)-3-hydroxypiperidine; 100 nM (3R,4S)-4-(2,3-dimethylphenyl)-3-hydroxypiperidine; 100 nM (3R,4R)-4-(2,3-dimethylphenyl)-3-hydroxypiperidine; 100 nM (3S,4S)-4-(2,3-dimethylphenyl)-3-hydroxypiperidine. Following incubation the cells or membranes were washed recovered and the radioactivity content of the filter used to determine specific receptor binding and inhibition by the essential pure diastereomers.

human 5-HT2B receptor = human 5-HT2B receptor (Homo sapiens, UniProt P41595); assay: 5-HT2B receptor binding assay; details: for inhibition at 0.1 µM: 100 nM compound, 1.2 nM [3H]-LSD, 60 minutes at 22° C., CHO cells, read-out: % inhibition of control specific at 100 nM conc.
Description: as §1, §2

5-HT3 = 5-HT3 (Homo sapiens, UniProt P46098); assay: 5-HT3 receptor binding assay; details: for inhibition at 0.1 µM: 100 nM compound, read-out: % inhibition of control specific at 100 nM conc.
5-HT4C = 5-HT4C receptor binding assay; set-up: species or system human; details: for % inhibition of control specific at 100 nM conc.: 100 nM compound
Description: as §1, §2

5-HT7 = biological target: T2, 5-HT7 (Homo sapiens, UniProt P34969); assay: 5-HT7 receptor binding assay; details: for inhibition at 0.1 µM: 100 nM compound, read-out: % inhibition of control specific at 100 nM conc.
T2 construct: expressed in transfected cells; host or cells: CHO cells

5-HT2c = 5-HT2c (Homo sapiens, UniProt P28335); assay: 5-HT2c receptor binding assay; details: for inhibition at 0.1 µM: 100 nM compound, read-out: % inhibition of control specific at 100 nM conc.
NE uptake = NE uptake (Homo sapiens, UniProt P23975); assay: NE uptake binding assay; details: for inhibition at 0.1 µM: 100 nM compound, read-out: % inhibition of control specific at 100 nM conc.
5-HT1 receptors = details: Waldmeier, cited from earlier work
5-HT2 receptors [1] = details: Waldmeier, cited from earlier work
alpha1-noradrenoceptors = details: in vitro; Waldmeier; cited from earlier work
alpha2-noradrenoceptors = details: in vitro; Waldmeier; cited from earlier work
beta-noradrenoceptors = details: in vitro; Waldmeier; cited from earlier work
histamine H1 receptors = details: in vitro; Waldmeier; cited from earlier work
[2] = tested on: muscarinic acetylcholine receptors; details: in vitro; Waldmeier; cited from earlier work
opiate receptors = details: in vitro; Waldmeier; cited from earlier work
GABAA receptors = details: in vitro; Waldmeier; cited from earlier work
benzodiazepine receptors = details: in vitro; Waldmeier; cited from earlier work
doparine receptors = details: in vivo; Waldmeier; cited from earlier work
5-HT2 receptors [3] = details: in vivo; Waldmeier; cited from earlier work
[4] = tested on: 5-HT reuptake in the brain; details: Delini-Stula et al.; cited from earlier work
[5] = tested on: 5-HT uptake processes in the periphery (blood platelets); details: Delini-Stula et al.; cited from earlier work

T2 sequence (P34969 whole entry): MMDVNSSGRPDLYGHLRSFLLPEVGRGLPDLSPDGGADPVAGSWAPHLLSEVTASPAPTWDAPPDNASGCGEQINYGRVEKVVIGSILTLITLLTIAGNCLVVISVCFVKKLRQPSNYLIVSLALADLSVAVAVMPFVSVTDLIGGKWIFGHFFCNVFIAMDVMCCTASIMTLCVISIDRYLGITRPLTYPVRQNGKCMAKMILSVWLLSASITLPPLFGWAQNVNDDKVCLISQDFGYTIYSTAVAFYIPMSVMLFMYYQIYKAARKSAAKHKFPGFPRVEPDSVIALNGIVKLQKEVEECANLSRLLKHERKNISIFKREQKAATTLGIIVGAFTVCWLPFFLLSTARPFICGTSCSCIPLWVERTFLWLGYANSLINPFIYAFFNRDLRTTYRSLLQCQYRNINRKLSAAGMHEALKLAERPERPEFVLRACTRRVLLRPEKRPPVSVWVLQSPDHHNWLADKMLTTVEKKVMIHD
Sequence of human 5-HT2B receptor (P41595 whole entry): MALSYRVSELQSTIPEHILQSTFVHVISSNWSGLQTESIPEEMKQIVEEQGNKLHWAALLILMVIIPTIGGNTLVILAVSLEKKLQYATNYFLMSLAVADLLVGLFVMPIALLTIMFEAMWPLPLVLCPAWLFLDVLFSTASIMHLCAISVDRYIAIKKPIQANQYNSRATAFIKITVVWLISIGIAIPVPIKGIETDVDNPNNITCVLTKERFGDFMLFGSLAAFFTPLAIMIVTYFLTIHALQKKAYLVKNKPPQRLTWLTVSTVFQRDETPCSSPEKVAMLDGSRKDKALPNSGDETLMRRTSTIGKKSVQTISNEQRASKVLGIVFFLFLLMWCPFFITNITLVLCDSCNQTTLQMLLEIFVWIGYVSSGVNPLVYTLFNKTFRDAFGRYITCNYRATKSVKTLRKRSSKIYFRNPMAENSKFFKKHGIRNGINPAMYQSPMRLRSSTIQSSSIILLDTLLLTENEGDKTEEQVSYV
Sequence of NE uptake (P23975 whole entry): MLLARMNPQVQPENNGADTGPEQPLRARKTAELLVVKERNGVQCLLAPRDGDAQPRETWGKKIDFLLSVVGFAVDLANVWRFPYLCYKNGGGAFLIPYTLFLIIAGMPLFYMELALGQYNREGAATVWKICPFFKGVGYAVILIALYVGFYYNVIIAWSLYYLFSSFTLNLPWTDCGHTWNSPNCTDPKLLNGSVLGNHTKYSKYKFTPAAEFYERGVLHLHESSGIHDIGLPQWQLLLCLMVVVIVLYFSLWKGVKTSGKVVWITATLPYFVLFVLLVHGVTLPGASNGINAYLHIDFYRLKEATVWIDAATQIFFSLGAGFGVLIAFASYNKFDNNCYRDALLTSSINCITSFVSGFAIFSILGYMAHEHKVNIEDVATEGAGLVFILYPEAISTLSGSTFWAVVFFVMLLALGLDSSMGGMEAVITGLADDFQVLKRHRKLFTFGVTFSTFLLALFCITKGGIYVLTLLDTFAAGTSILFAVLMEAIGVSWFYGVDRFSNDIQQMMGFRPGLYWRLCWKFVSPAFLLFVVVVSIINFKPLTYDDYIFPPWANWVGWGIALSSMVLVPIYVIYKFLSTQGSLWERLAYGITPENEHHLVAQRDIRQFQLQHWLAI
Sequence of 5-HT2c (P28335 33-458): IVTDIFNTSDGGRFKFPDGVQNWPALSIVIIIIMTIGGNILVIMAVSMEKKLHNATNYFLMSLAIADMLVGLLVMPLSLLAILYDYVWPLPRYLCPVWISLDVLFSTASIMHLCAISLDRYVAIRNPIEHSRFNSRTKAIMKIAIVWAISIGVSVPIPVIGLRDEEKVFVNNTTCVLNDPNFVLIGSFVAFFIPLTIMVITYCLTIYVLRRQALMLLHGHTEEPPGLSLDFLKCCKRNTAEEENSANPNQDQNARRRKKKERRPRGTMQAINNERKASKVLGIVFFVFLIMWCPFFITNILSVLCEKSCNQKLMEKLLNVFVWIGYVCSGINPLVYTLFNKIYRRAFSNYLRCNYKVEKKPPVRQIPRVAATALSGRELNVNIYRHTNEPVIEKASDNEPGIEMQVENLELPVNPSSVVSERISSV
Sequence of 5-HT3 (P46098 24-478): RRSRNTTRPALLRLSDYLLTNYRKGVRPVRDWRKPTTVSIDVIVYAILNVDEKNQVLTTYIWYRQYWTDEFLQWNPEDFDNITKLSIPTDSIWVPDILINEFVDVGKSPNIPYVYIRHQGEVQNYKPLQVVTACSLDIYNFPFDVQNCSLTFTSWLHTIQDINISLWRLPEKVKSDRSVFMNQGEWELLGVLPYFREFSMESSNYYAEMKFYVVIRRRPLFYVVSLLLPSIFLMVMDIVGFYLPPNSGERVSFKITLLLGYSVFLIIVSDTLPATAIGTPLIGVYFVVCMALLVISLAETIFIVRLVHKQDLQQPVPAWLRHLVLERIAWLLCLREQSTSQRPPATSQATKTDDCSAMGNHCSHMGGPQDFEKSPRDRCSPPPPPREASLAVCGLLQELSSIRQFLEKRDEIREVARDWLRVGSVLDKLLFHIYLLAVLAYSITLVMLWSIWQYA

SMILES | inhibition at 0.1 µM (human 5-HT1A receptor) [%] | inhibition at 0.1 µM (human 5-HT2B receptor) [%] | inhibition at 0.1 µM (5-HT3) [%] | % inhibition of control specific at 100 nM conc. (5-HT4C) [%] | inhibition of binding to 5-HT7 receptors (in words) (5-HT7) | inhibition at 0.1 µM (5-HT7) [%] | inhibition at 0.1 µM (5-HT2c) [%] | inhibition at 0.1 µM (NE uptake) [%] | inhibition of binding to Ne (Norepinephrine) uptake receptors (in words) (NE uptake) | inhibition of binding to 5-HT1A receptors (in words) (human 5-HT1A receptor) | inhibition of binding to 5-HT2c receptors (in words) (5-HT2c) | also measured
Cc1cccc(O[C@@H]2CCNC[C@H]2O)c1C | 16 | 6 | 4 | 0 | inhibits binding | 16 | -11 | -9 | – | inhibits binding | – | –
Cc1cccc(O[C@H]2CCNC[C@H]2O)c1C | 39 | 48 | 6 | 8 | – | 1 | 4 | 3 | – | effective inhibitor of binding | effective inhibitor of binding | inhibition of binding to 5-HT2B receptors (in words) (human 5-HT2B receptor): effective inhibitor of binding
Cc1cccc(O[C@H]2CCNC[C@H]2O)c1C.Cc1cccc(O[C@H]2CCNC[C@H]2O)c1C.O=S(=O)(O)O (relative stereo) [ifoxetine, (+/−)-bis-[cis-3-hydroxy-4-(2,3-dimethyl-phenoxy)]-piperidine sulfate] | – | – | – | – | – | – | – | – | – | – | – | activity at 5-HT1 receptors (5-HT1 receptors; 10 μM of the racemate): minimal activity; interaction with 5-HT1 receptors (5-HT1 receptors; in vitro): weak or no interactions; activity at 5-HT2 receptors (5-HT2 receptors [1]; 10 μM of the racemate): minimal activity; interaction with 5-HT2 receptors (5-HT2 receptors [1]; in vitro): weak or no interactions; interaction with alpha1-noradrenoceptors (alpha1-noradrenoceptors): weak or no interactions; interaction with alpha2-noradrenoceptors (alpha2-noradrenoceptors): weak or no interactions; interaction with beta-noradrenoceptors (beta-noradrenoceptors): weak or no interactions; interaction with histamine H1 receptors (histamine H1 receptors): weak or no interactions; interaction with muscarinic acetylcholine receptors [2]: weak or no interactions; interaction with opiate receptors (opiate receptors): weak or no interactions; interaction with GABAA receptors (GABAA receptors): weak or no interactions; interaction with benzodiazepine receptors (benzodiazepine receptors): weak or no interactions; interaction with doparine receptors (doparine receptors): weak or no interactions; interaction with 5-HT2 receptors (5-HT2 receptors [3]): weak or no interactions; block of 5-HT reuptake in the brain [4]: specifically and selectively blocks; effect on 5-HT uptake processes in the periphery (blood platelets) [5]: without affecting

Further lines, with some results ahead:

inhibition at 0.1 µM (human 5-HT1A receptor) [%] | inhibition at 0.1 µM (human 5-HT2B receptor) [%] | inhibition at 0.1 µM (5-HT3) [%] | % inhibition of control specific at 100 nM conc. (5-HT4C) [%] | inhibition of binding to 5-HT7 receptors (in words) (5-HT7) | inhibition at 0.1 µM (5-HT7) [%] | inhibition at 0.1 µM (5-HT2c) [%] | inhibition at 0.1 µM (NE uptake) [%] | inhibition of binding to Ne (Norepinephrine) uptake receptors (in words) (NE uptake) | SMILES | inhibition of binding to 5-HT1A receptors (in words) (human 5-HT1A receptor) | inhibition of binding to 5-HT2c receptors (in words) (5-HT2c) | also measured
9 | 6 | 11 | 15 | – | 6 | -17 | 8 | inhibits binding | Cc1cccc(O[C@@H]2CCNC[C@@H]2O)c1C | – | – | inhibition of binding to 5-HT3 receptors (in words) (5-HT3): inhibits binding; inhibition of binding to 5-HT4c receptors (in words) (5-HT4C): inhibits binding
-8 | 6 | 5 | 5 | inhibits binding | 22 | 7 | 4 | inhibits binding | Cc1cccc(O[C@H]2CCNC[C@@H]2O)c1C | – | inhibits binding | –
